Assay results reported in US20230313199A1, “TARGET FOR MODULATING BODY MASS” (Massachusetts Institute of Technology, priority 2020, published 2023).

Legend:
[1] = tested on: THP-1 cells; experiment: Mitochondrial membrane potential by TMRE and flow cytometry; type: cell-based, human; conditions: heme 1 hour, reduced to similar levels as in 7CKO cells
Procedure: Mitochondrial membrane potential was measured using Abcam kit (Catalog No. ab113852). Briefly, BMDM, THP-1 and 7CKO cells were not treated or treated with […] for 1 hour. The cells were incubated with mitochondrial membrane potential indicator, 200 nM TMRE (tetramethylrhodamine, ethyl ester) for 20 minutes. The mean fluorescence intensity of TMRE were determined by flow cytometry.

[2] = tested on: 4B8^FL cells; experiment: OCR and ECAR (Seahorse) in 4B8 cells complemented with full length MFSD7C; type: cell-based, human; conditions: heme 1 hour
Procedure: FIGS. 4A-4H show NTD of MFSD7C mediates heme effect on mitochondrial respiration. FIGS. 4A-4C show comparison of basal OCR (FIG. 4A), maximal OCR (FIG. 4B) and ECAR (FIG. 4C) of THP-1, 4B8, and 4B8^FL and 4B8^ΔN cells treated with vehicle or heme for 1 hour (n=18 separate experiments). […] Cells were incubated with FPT for 6 hrs, washed and reseeded in poly-lysine coated glass bottom dishes. After cells attached to the glass, medium containing 40 μM heme was added. Cells in the same field were imaged immediately and again 1 hour later. Relative FPT fluorescent intensities, normalized to THP-1, from three experiments are shown. (n=3 independent experiments). […] THP-1, 4B8, 4B8^FL and 4B8^ΔN cells were treated with vehicle or heme for 1 hour and MMP was measured by using JC-10 Mitochondrial Membrane Potential Assay Kit followed by flow cytometry. […] Shown are representative Western blotting data (FIG. 4G) and quantification of band intensities from n=3 independent experiments (FIG. 4H). P-values were calculated using two-way ANOVA (*p<0.05, **p<0.01, ***p<0.005). […]
Measurements of OCR, ECAR, and MMP. Oxygen consumption rate (OCR) and extracellular acidification rate (ECAR) were measured using XF96e Seahorse Extracellular Flux Analyzer per manufacturer's protocol. […]

[3] = biological target: T1, NTD of human MFSD7C (Homo sapiens, UniProt Q9UPI3); experiment: Heme absorbance-shift assay with wild-type NTD; type: binding
T1 construct: Plasmid harboring GST-His-tag-SUMO-NTD (amino acids 1-84); GST-His-tag-SUMO (N, cleaved yes); made in house; host or cells: Escherichia coli Lemo21(DE3)
T1 sequence (Q9UPI3 1-84): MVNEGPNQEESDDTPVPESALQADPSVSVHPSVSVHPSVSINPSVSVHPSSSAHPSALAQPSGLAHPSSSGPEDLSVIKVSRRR
Procedure: Heme absorbance-shift assay. Hemin was prepared fresh before each experiment. Approximately 20 mg of hemin (Sigma) was placed in a fresh tube and resuspended with 1 mL of DMSO. The hemin solution was slowly diluted while mixing with 1 mL of 2× buffer C (25 mM HEPES-NaOH pH 7.8, 10 mM NaCl), and aggregated hemin was eliminated by passing the solution through a 0.2 μm filter unit. Hemin concentration was determined by diluting the filtered solution with 1× buffer C 1:100 and using the extinction coefficient of 58,400 cm^−1M^−1 at 385 nm. For each reaction, the 200 μL reaction mix containing 100 μM hemin, 25 mM HEPES-NaOH pH 7.8, 10 mM NaCl, and various concentrations of wild-type or mutant NTD protein, was placed in a transparent 96-well plate. Absorbance intensity was measured using Tecan Infinite M200 Pro microplate reader, between 330 and 550 nm using 5 nm steps. The absorbance intensity for dissolved hemin was subtracted from absorbance intensity from hemin incubated with various concentrations of protein.

C=CC1=C(C)c2cc3[n-]c(cc4[n-]c(cc5nc(cc1n2)C(C)=C5C=C)c(C)c4CCC(=O)O)c(CCC(=O)O)c3C.[Fe+2] [heme]
MMP [1]: reduced | ECAR [2]: increased | OCR [2]: increased | absorbance shift of heme (Soret band, Q band) ([3]; 100 μM heme, various concentrations of wild-type NTD): concentration-dependent increase in the intensities of the Soret band (415 nm) and the Q band (535 nm) | heme binding sites per NTD from rate of increase of Soret band intensities ([3]; 415 nm absorbance versus NTD concentration): two or more heme binding sites per NTD
